# Results as given in US8404691B2, “Imidazothiazole derivatives having proline ring structure” (Daiichi Sankyo Company, Limited, priority 2009, dated 2013).
# Assays:
# Mdm2/p53 binding = target: T1, Mdm2/p53 binding (Homo sapiens, UniProt Q00987, L33E); experiment: Mdm2/p53 binding assay (HTRF, His-p53 and GST-Mdm2); settings: His-p53 (aa 1-132) and GST-Mdm2 (aa 25-108, L33E), 6.25 nM each, 25° C. for 1 hour
# T1 construct: Mdm2 amino acids at positions 25 to 108
# Procedure: Next, a test compound was diluted with DMSO to produce protein buffer solution containing 10% dilution, and this buffer solution was added in an amount of 4 μL/well to the plate.
# These dilutions were added in an amount of 8 μL/well (total reaction solution volume: 20 μl/well). Then, the plate was left at 25° C. for 1 hour.
# The R value calculated from the well supplemented with His-p53, GST-Mdm2, the test compound, and each antibody was defined as R (sample). The R value calculated from the well supplemented with His-p53, GST-Mdm2, and each antibody but without the test compound was defined as R (control). The R value calculated from the well supplemented with GST-Mdm2, the test compound, and each antibody but without His-p53 was defined as R (background). T/C was calculated from the formula shown below. An IC50 value for Mdm2/p53 binding was calculated by sigmoid fitting. T/C=(R(sample)−R(background))/(R(control)−R(background))
# [1] = Metabolic stability test (microsomal metabolism); type: in vitro ADME; settings: human liver microsomes, 37° C., 30 minutes after addition of NADP+; note: tested at 1.1 µM
# Procedure: 100 μL of 100 mM phosphate buffer solution (pH 7.4) containing 3 μM test compound was added to 100 μL of reaction solution containing 100 mM phosphate buffer solution (pH 7.4), 30 mM glucose 6-phosphate, 10 mM MgCl2.6H2O, 3 units/mL glucose 6-phosphate 1-dehydrogenase, and 0.3 to 1.5 mgP/mL human liver microsomes and the mixture was incubated at 37° C. for 20 minutes. Then, 70 μL of 100 mM phosphate buffer solution (pH 7.4) containing 3 mM NADP+ was added and the mixture was further incubated at 37° C. for 30 minutes to conduct a microsomal metabolism test. The compound was quantified by the internal standard method using a quadrupole mass spectrometer connected to a high performance liquid chromatography apparatus. The metabolic stability (residual percentage of compound: MS %) was determined according to the following formula: MS(human)(%)=(peak area ratio of test compound after addition of NADP+ and incubation for 30 minutes)/(peak area ratio of test compound before addition of NADP+)×100.
# (peak area ratio: peak area of test compound divided by that of internal standard substance)
# [2] = system: human lung cancer-derived cell line NCI-H460 having wild-type p53; experiment: Cell growth inhibition assay (MTT); type: cell-based; settings: 72 h, NCI-H460 cells, culturing 3 days, read-out: anti-cellular effect GI50 (50% growth inhibition concentration)
# Procedure: A cell growth inhibition assay was conducted using human lung cancer-derived cell line NCI-H460 having wild-type p53.
# NCI-H460 cells were suspended in a medium (RPMI1640 medium containing 10% fetal bovine serum) and the suspension was inoculated in an amount of 500 cells/150 μL/well to a 96-well multiwell plate. A test compound was dissolved in DMSO and this solution was diluted with medium to prepare a sample solution (DMSO concentration: 1% or lower). On the next day of inoculation, medium nonsupplemented with the test compound or the sample solution was added in an amount of 50 μL/well. The MTT assay was conducted immediately after the medium was added in an amount of 50 μL on the next day of cell inoculation, and after the sample solution or the medium was added to cells followed by culturing at 37° C. for 3 days in a 5% CO2 atmosphere. The MTT assay was conducted as shown below.
# A 5 mg/mL MTT (3-(4,5-dimethylthiazol-2-yl)-2,5-diphenyltetrazolium bromide, Sigma-Aldrich Co., M-2128) solution was prepared using a phosphate buffer solution (Dulbecco's Phosphate-buffered Saline). This MTT solution was added in an amount of 20 μL/well. Then, the plate was cultured at 37° C. for 4 hours in a 5% CO2 atmosphere. The plate was centrifuged at 1200 rpm for 5 minutes and then the culture supernatant was removed by aspiration using a dispenser. DMSO was added in an amount of 150 μL/well to dissolve generated formazan. The plate was stirred using a plate mixer for uniform color development from each well. The absorbance of each well was measured under conditions of OD 540 nm and reference 660 nm using a plate reader (SpectraMax PLUS384, Molecular Devices, CA, USA).
# The OD value measured on the day of adding the sample solution was defined as S. The OD value measured three days after addition of the sample solution was defined as T. The OD value measured three days after addition of the DMSO dilution was defined as C. T/C (%) was determined at each concentration according to the calculation formula shown below to prepare a dose response curve, from which 50% growth inhibition concentration (GI50 value) was calculated. T/C(%)=(T−S)/(C−S)×100
# T1 sequence (Q00987 25-108 L33E): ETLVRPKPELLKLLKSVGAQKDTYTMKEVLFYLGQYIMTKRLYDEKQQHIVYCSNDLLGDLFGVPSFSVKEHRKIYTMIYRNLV
IC50 (Mdm2/p53 binding) [nM],"MS (human) % (metabolic stability, residual percentage of compound) [1] [%]",GI50 [2] [nM],SMILES
1.9,91,< 400,CC(C)C1=C(C(=O)N2C[C@H](F)C[C@H]2C(=O)N2CC3(CC3)NC[C@@H]2C)SC2=N[C@@](C)(c3ccc(Cl)nc3)[C@@H](c3ccc(Cl)cc3)N21 [Example 27]
4.1,80,< 400,"CC(C)C1=C(C(=O)N2CC(F)(F)C[C@H]2C(=O)N2CC3(CC3)NC[C@@H]2C)SC2=N[C@@](C)(c3ccc(Cl)nc3)[C@@H](c3ccc(Cl)c(F)c3)N21 [Example 9, (6S)-7-(1-{[(5R,6S)-5-(4-chloro-3-fluorophenyl)-6-(6-chloropyridin-3-yl)-3-isopropyl-6-methyl-5,6-dihydroimidazo[2,1-b][1,3]thiazol-2-yl]carbonyl}-4,4-difluoro-L-prolyl)-6-methyl-4,7-diazaspiro[2.5]octane]"
5.4,100,400 to 2500,"CC(C)C1=C(C(=O)N2C[C@H](F)C[C@H]2C(=O)N2CC3(CC3)NC[C@@H]2C(=O)O)SC2=N[C@@](C)(c3ccc(Cl)nc3)[C@@H](c3ccc(Cl)c(F)c3)N21.Cl.Cl [Example 13, (6R)-7-[(4R)-1-{[(5R,6S)-5-(4-chloro-3-fluorophenyl)-6-(6-chloropyridin-3-yl)-3-isopropyl-6-methyl-5,6-dihydroimidazo[2,1-b][1,3]thiazol-2-yl]carbonyl}-4-fluoro-L-prolyl]-4,7-diazaspiro[2.5]octane-6-carboxylic acid dihydrochloride]"
2.7,44,< 400,"CC(C)C1=C(C(=O)N2C[C@H](F)C[C@H]2C(=O)N2CCN(C)C3(CC3)C2)SC2=N[C@@](C)(c3ccc(Cl)nc3)[C@@H](c3ccc(Cl)c(F)c3)N21 [Example 15, 7-[(4R)-1-{[(5R,6S)-5-(4-chloro-3-fluorophenyl)-6-(6-chloropyridin-3-yl)-3-isopropyl-6-methyl-5,6-dihydroimidazo[2,1-b][1,3]thiazol-2-yl]carbonyl}-4-fluoro-L-prolyl]-4-methyl-4,7-diazaspiro[2.5]octane]"
2.8,77,< 400,"CC(C)C1=C(C(=O)N2C[C@H](F)C[C@H]2C(=O)N2CCNC3(CC3)C2)SC2=N[C@@](C)(c3ccc(Cl)nc3)[C@@H](c3ccc(Cl)c(F)c3)N21 [Example 1, 7-[(4R)-1-{[(5R,6S)-5-(4-chloro-3-fluorophenyl)-6-(6-chloropyridin-3-yl)-3-isopropyl-6-methyl-5,6-dihydroimidazo[2,1-b][1,3]thiazol-2-yl]carbonyl}-4-fluoro-L-prolyl]-4,7-diazaspiro[2.5]octane]"
2.6,96,< 400,CC[C@H]1CNC2(CC2)CN1C(=O)[C@@H]1C[C@@H](F)CN1C(=O)C1=C(C(C)C)N2C(=N[C@@](C)(c3ccc(Cl)nc3)[C@H]2c2ccc(Cl)cc2)S1 [Example 29]
2.2,95,< 400,"CC(C)C1=C(C(=O)N2C[C@H](F)C[C@H]2C(=O)N2CC3(CC3)NCC23CC3)SC2=N[C@@](C)(c3ccc(Cl)nc3)[C@@H](c3ccc(Cl)c(F)c3)N21 [Example 8, 4-[(4R)-1-{[(5R,6S)-5-(4-chloro-3-fluorophenyl)-6-(6-chloropyridin-3-yl)-3-isopropyl-6-methyl-5,6-dihydroimidazo[2,1-b][1,3]thiazol-2-yl]carbonyl}-4-fluoro-L-prolyl]-4,9-diazaspiro[2.2.2.2]decane]"
–,69,–,"CC[C@@H]1CNC2(CC2)CN1C(=O)[C@@H]1C[C@@H](F)CN1C(=O)C1=C(C(C)C)N2C(=N[C@@](C)(c3ccc(Cl)nc3)[C@H]2c2ccc(Cl)c(F)c2)S1 [Example 6, (6R)-7-[(4R)-1-{[(5R,6S)-5-(4-chloro-3-fluorophenyl)-6-(6-chloropyridin-3-yl)-3-isopropyl-6-methyl-5,6-dihydroimidazo[2,1-b][1,3]thiazol-2-yl]carbonyl}-4-fluoro-L-prolyl]-6-ethyl-4,7-diazaspiro[2.5]octane]"
5.3,–,< 400,"CC[C@@H]1CN(C(=O)C(F)(F)F)C2(CC2)CN1C(=O)[C@@H]1C[C@@H](F)CN1C(=O)C1=C(C(C)C)N2C(=N[C@@](C)(c3ccc(Cl)nc3)[C@H]2c2ccc(Cl)c(F)c2)S1 [Example 5, (6R)-7-[(4R)-1-{[(5R,6S)-5-(4-chloro-3-fluorophenyl)-6-(6-chloropyridin-3-yl)-3-isopropyl-6-methyl-5,6-dihydroimidazo[2,1-b][1,3]thiazol-2-yl]carbonyl}-4-fluoro-L-prolyl]-6-ethyl-4-(trifluoroacetyl)-4,7-diazaspiro[2.5]octane]"
–,100,–,"CC(C)C1=C(C(=O)N2C[C@H](F)C[C@H]2C(=O)N2CC3(CC3)NC[C@@H]2C)SC2=N[C@@](C)(c3ccc(Cl)nc3)[C@@H](c3ccc(Cl)c(F)c3)N21 [Example 2, (6S)-7-[(4R)-1-{[(5R,6S)-5-(4-chloro-3-fluorophenyl)-6-(6-chloropyridin-3-yl)-3-isopropyl-6-methyl-5,6-dihydroimidazo[2,1-b][1,3]thiazol-2-yl]carbonyl}-4-fluoro-L-prolyl]-6-methyl-4,7-diazaspiro[2.5]octane]"
–,68,–,"CC(C)C1=C(C(=O)N2C[C@H](F)C[C@H]2C(=O)N2CC3(CC3)NC[C@H]2C)SC2=N[C@@](C)(c3ccc(Cl)nc3)[C@@H](c3ccc(Cl)c(F)c3)N21 [Example 3, (6R)-7-[(4R)-1-{[(5R,6S)-5-(4-chloro-3-fluorophenyl)-6-(6-chloropyridin-3-yl)-3-isopropyl-6-methyl-5,6-dihydroimidazo[2,1-b][1,3]thiazol-2-yl]carbonyl}-4-fluoro-L-prolyl]-6-methyl-4,7-diazaspiro[2.5]octane]"
–,89,< 400,CC(C)C1=C(C(=O)N2C[C@H](F)C[C@H]2C(=O)N2CC3(CC3)NC[C@@H]2C)SC2=N[C@@](C)(c3ccc(Cl)cc3)[C@@H](c3ccc(Cl)c(F)c3)N21 [Example 24]
–,100,–,"CC[C@H]1CNC2(CC2)CN1C(=O)[C@@H]1C[C@@H](F)CN1C(=O)C1=C(C(C)C)N2C(=N[C@@](C)(c3ccc(Cl)nc3)[C@H]2c2ccc(Cl)c(F)c2)S1 [Example 4, (6S)-7-[(4R)-1-{[(5R,6S)-5-(4-chloro-3-fluorophenyl)-6-(6-chloropyridin-3-yl)-3-isopropyl-6-methyl-5,6-dihydroimidazo[2,1-b][1,3]thiazol-2-yl]carbonyl}-4-fluoro-L-prolyl]-6-ethyl-4,7-diazaspiro[2.5]octane]"
–,47,< 400,CC(C)C1=C(C(=O)N2C[C@H](F)C[C@H]2C(=O)N2CC3(CC3)NC[C@H]2C)SC2=N[C@@](C)(c3ccc(Cl)cc3)[C@@H](c3ccc(Cl)c(F)c3)N21 [Example 25]
